# Assay results from patent US20040229205A1, “Compositions for the storage of platelets” (priority 2003, published 2004).
# Experiments:
# [1] = tested on: platelets (P-selectin expression); test: P-selectin expression of stored platelets by flow cytometry, basal and after 10 nM thrombin challenge; format: cell-based; settings: for Difference (% capable of being activated) / % Positive / P-Selectin Expression: five day stored platelets; for retained P-selectin expression activity: thrombin challenge
# Text: Internal protein expression may be measured by conjugation of a molecule with a fluorescent dye, followed by sorting in a fluorescent cell sorter. In general, it is preferable to use two monoclonal antibodies, one that binds a cell surface molecule expressed and a second that binds a cell surface molecule that is expressed only after activation. Each monoclonal antibody is conjugated to a different colored dye, that can be distinguished by spectrofluorometry. In the preferred embodiment, the normally expressed cell surface molecule is GPIIbIIIa; the cell surface molecule expressed after activation is P-selectin. It is well know in the art to make monoclonal antibodies to proteins. U.S. Pat. No. 5,470,738, issued in 1995 to Freilich et al, is one example of a method of making monoclonal antibodies to GPIIIa. Another anti-platelet monoclonal antibody is that to GP IV, as disclosed by U.S. Pat. No. 5,231,025, issued in 1993 to Gralnisch. However, it is most convenient to purchase antibodies commercially from such companies as Becton-Dickinson (Philadelphia).
# A basal measurement of spontaneous activation is obtained and the cells are then challenged with an agonist. The difference between cells challenged to activate minus the basal measurement is a measure of cell function. In the preferred embodiment, the agonist is 10 nM thrombin.
# P-selectin is an internal protein that is exposed on the surface of the platelet after activation. Once activated, platelets cannot be activated again, that is, they are nonfunctional. Platelets which have aggregated are likewise nonfunctional. Measurement of P-selectin before and after activation with thrombin provides a measure of the ability of the platelets to be activated.
# P-selectin expression in response to a challenge of 10 nM thrombin is a highly accurate and quantitative method to assess platelet function using flow cytometry techniques. A monoclonal antibody to the platelet GPIIbIIIa receptor (Becton-Dickinson) is conjugated with green fluorescence, marking all platelets with a green detection. […] About 10,000 to 25,000 platelets are counted and measured for P-selectin expression and the % positive cells are defined as activated platelets that express P-selectin. Platelets that are activated are not capable of being activated a second time; that is, they are essentially nonfunctional.
# It was proposed years ago by Dawson (Transfusion 21:215-218. (1981)) that ribose at the concentration of 15 mM is beneficial to stored whole blood. It was assumed that ribose functioned by raising the energy levels of the cells, as discussed at length in U.S. Pat. No. 6,159,942. […] However, it should be noted that the platelet storage milieu is an austere environment, lacking the homeostatic and buffering mechanisms of the kidneys, lungs and livers of an intact organism. Various concentrations of D-Ribose were tested to determine the optimum level for platelet storage. […] Platelet concentrate bags were obtained from a local transfusion center within two hours of collection from the donor. The platelets were either supplemented with the D-Ribose cocktail directly into the bag or the platelets were divided into a series of 10 tubes into each of which two ml of platelets were added. Platelet function was assessed by ATP secretion, platelet aggregation, P-selectin expression, platelet count and pH. Platelet function was measured every 24 hours. The bags and tubes were placed on a rotating wheel at room temperature for the duration of the experiment.
# For the concentration test, platelets were stored for five days in standard platelet storage solution at room temperature and gentle agitation with or without various levels of ribose. At five days the P-selectin expression test was performed.
# platelets (aggregation) = test: Platelet aggregation on thrombin challenge (optical density / aggregometer); format: cell-based
# Text: Another parameter of platelet function is the ability to aggregate when challenged by an agonist. The platelet suspension is dense and milky white. Aggregation and subsequent settling of the aggregates can be estimated visually, or measured with a densitometer.
# As a second measure of the effect of ribose on platelets, platelet aggregation was estimated. Platelet aggregation is a crucial function of platelet activity; platelets that cannot aggregate are essentially nonfunctional. Platelets were stored as above. The optical density of the suspension was measured before and after thrombin challenge.
# Platelet aggregation was measured with a platelet aggregometer (Chronolog, Inc., Irvine, Calif.). Platelet-rich, turbid suspensions were stirred in a cuvette and the transmittance of light through the sample relative to a platelet poor blank is recorded. When a aggregating agent is added, activated platelets with exposed fibrinogen receptors (GPIIbIIIa) are brought in close contact with each other in a medium containing calcium and fibrinogen and form increasingly large platelet aggregates, accompanied by a decrease in turbidity. The change in optical density was then translated by the instrument to percent aggregation. Simple stated, as platelets clump, more light passes through the cuvette.
# [2] = tested on: platelets (adhesion to adventitia of human renal artery); test: Platelet adhesion assay in microflow chamber on human renal artery section; format: cell-based; settings: 1.5 mM D-ribose solution, eight days of storage
# Method: The ability of platelets to aggregate as a measure of function can also be assayed by ability to adhere to and […] on tissue, such as the adventitia and intima of arteries. Normal, healthy, functional platelets will show deposition and attachment onto tissue whereas compromised, poorly functional or nonfunctional platelets will have decreased levels of platelet attachment. Platelet rich plasma (PRP) was prepared from a random donor bag of platelets, which were harvested and resuspended in plasma at a concentration of at least 10^6 platelets per milliliter. On Day 1, the platelets were allowed to stand at room temperature for eight hours and were then tested in the platelet adhesion assay. Fresh frozen human renal artery was sectioned and placed flat on a microscope slide. A microflow chamber was constructed to pull PRP across the section at a defined flow rate and defined shear rate. The direction of flow is adventitia, through the media and intima and into the lumen, as illustrated in FIG. 10. Functional platelets will adhere to the adventitia and form accretion zones that initiate at the adventitia (the outside of the blood vessel) and extend across the media and intima. Non-functional platelets are unable to adhere to the adventitia. Therefore, the adhesion assay is a sensitive test of platelet function. Following the baseline test, a portion of the platelet suspension was set aside as control, without additional solution added. Another portion of the platelets were suspended in a solution containing: [table]
# [3] = tested on: platelets (ATP secretion); test: ATP secretion of stored platelets in response to 10 nM thrombin (luciferin/luciferase); format: cell-based
# Text: Yet another measure of platelet function is the secretion of ATP. Platelets that are able to function well are able to secrete ATP while cells that have already been activated or have lost funciton in other ways cannot secrete ATP.
# The platelet dense granules shown in FIG. 1 contain ATP which is released in response to platelet agonists such as thrombin, collagen or adenosine diphosphate (ADP). The release reaction of ATP from platelets serves as another method to monitor platelet function. There are many methods to analyze ATP. A convenient method is the well known luciferin/luciferase reaction (Sigma Chemical, St. Louis). This assay is derived from the light producing system of the firefly. The substrate luciferin, in the presence of ATP, is cleaved by the enzyme luciferase, accompanied by the emission of light. The emitted light is measured by a photomultiplier tube
# Platelet suspensions containing about 350 units in 40 μl were mixed with 10 μl luciferin/luciferase reagent. An agonist is injected. As the platelet dense granules release ATP, the bioluminescent reaction occurs, which is measured by the photomultiplier tube. […] The rate of reaction is recorded and as platelet function decays, the rate decays. Total ATP was measured by lysing the cells with Triton and determining ATP content. The results as presented in Table III are expressed as intact rate of ATP secretion.
# bacteria = test: Bacterial contamination of platelet storage solution by colony counts in Petri dishes; settings: D-Ribose added to the storage cocktail
# Method: (§1) Bacterial contamination was measured by colony counts in standard Petri dishes that had been inculated with the test solution. It is assumed that the millimolar glucose concentration in most platelet storage solutions contributes to the growth of bacteria. As noted above, Murphy (Table II) discloses a glucose-free solution for the storage of platelets. Elimination of reduction of glucose levels from millimolar to micromolar concentrations has a profound effect in reducing bacterial contamination, however, platelet function at five days, as measured by ATP secretion and P-selectin expression, was poor.
# [4] = 30 grams of ribose each day, subjects; cited from earlier work
# platelets = test: Preservation of platelet function in stored platelets, methods of examples 1 to 6; format: cell-based
# Method: It is known that other pentoses may have similar effects as D-Ribose, either through intracellular conversion to riboe or a direct effect. Ribulose-5-phosphate, xylulose-5-phosphate and xylitol were tested for preservation of activity in stored platelets according to the methods of examples 1 to 6.
# as §1
# [5] = 1.5 mM down to 150 pM, analyzed every 24 hours
smiles,measurement,setting,value
O=C[C@H](O)[C@H](O)[C@H](O)CO [D-Ribose],Difference (% capable of being activated),[1]; 150 pM D-Ribose,10.9%
same,% Positive,"[1]; 150 pM D-Ribose, + thrombin",42.6%
same,P-Selectin Expression,"[1]; 150 pM D-Ribose, + thrombin",15475
same,% Positive,"[1]; 150 pM D-Ribose, basal",31.7%
same,P-Selectin Expression,"[1]; 150 pM D-Ribose, basal",11260
same,preserving function (P-selectin expression test),"[1]; 150 pM D-Ribose, five days storage",ineffective
same,retained activity,"[1]; 150 nM D-Ribose, 8 days of storage",greater than 75%
same,retained activity,"[1]; 150 nM D-Ribose, 10 days of storage",greater than 50%
same,Difference (% capable of being activated),[1]; 150 nM D-Ribose,60.6%
same,% Positive,"[1]; 150 nM D-Ribose, + thrombin",65.7%
same,P-Selectin Expression,"[1]; 150 nM D-Ribose, + thrombin",41480
same,% Positive,"[1]; 150 nM D-Ribose, basal",5.1%
same,P-Selectin Expression,"[1]; 150 nM D-Ribose, basal",2465
same,retained P-selectin expression activity,"[1]; 150 nM D-Ribose, five days storage",about 60%
same,retention of activation activity on activation with thrombin,"[1]; 153 nM D-Ribose, three days storage",78.8%
same,positive (activated) cells,"[1]; 153 nM D-Ribose, three days storage, basal",5%
same,Difference (% capable of being activated),[1]; 15 μM D-Ribose,58.3%
same,% Positive,"[1]; 15 μM D-Ribose, + thrombin",64.4%
same,P-Selectin Expression,"[1]; 15 μM D-Ribose, + thrombin",34960
same,% Positive,"[1]; 15 μM D-Ribose, basal",6.1%
same,P-Selectin Expression,"[1]; 15 μM D-Ribose, basal",3275
same,Difference (% capable of being activated),[1]; 1.5 mM D-Ribose,34.4%
same,% Positive,"[1]; 1.5 mM D-Ribose, + thrombin",60.0%
same,P-Selectin Expression,"[1]; 1.5 mM D-Ribose, + thrombin",32400
same,% Positive,"[1]; 1.5 mM D-Ribose, basal",40.4%
same,P-Selectin Expression,"[1]; 1.5 mM D-Ribose, basal",21605
same,retained P-selectin expression activity,"[1]; 1.5 mM D-Ribose, five days storage",about 60%
same,platelet samples with aggressive aggregation response to 10 nM thrombin,platelets (aggregation); day 3,all five
same,platelet samples responding (aggregation) to 10 nM thrombin,platelets (aggregation); day five,four out of five
same,platelet samples able to aggregate in response to thrombin challenge,platelets (aggregation); day seven,three out of five
same,aggregation on thrombin challenge,platelets (aggregation); platelets stored in 150 pM D-Ribose,no aggregation
same,aggregation on thrombin challenge,platelets (aggregation); platelets stored in 150 nM D-Ribose,strong aggregation
same,aggregation on thrombin challenge,platelets (aggregation); platelets stored in 15 μM D-Ribose,very weak effect
same,aggregation on thrombin challenge,platelets (aggregation); platelets stored in 1.5 mM D-Ribose,no aggregation
same,platelet adhesion,[2]; 30 seconds of flow,very early platelet adhesion at the adventitia
same,platelet adhesion and accretion,[2]; 2.5 minutes of flow,significant platelet adhesion and accretion zones
same,platelet adhesion and accretion,[2]; 4.5 minutes of flow,formed a large platelet mass at the adventitia
same,preservative effect on ATP secretion,[3]; 1.5 nM D-Ribose,no preservative effect
same,rise of total ATP content of treated cells,[3]; 150 nM D-Ribose,more than 10%
same,Rate of ATP secretion,"[3]; 150 nM D-Ribose, day 1, 10 nM thrombin",1.9
same,Total ATP,"[3]; 150 nM D-Ribose, day 1, cells lysed with Triton",3.0
same,Rate of ATP secretion,"[3]; 150 nM D-Ribose, day 3, 10 nM thrombin",1.9
same,Total ATP,"[3]; 150 nM D-Ribose, day 3, cells lysed with Triton",3.2
same,Rate of ATP secretion,"[3]; 150 nM D-Ribose, day 5, 10 nM thrombin",1.7
same,Total ATP,"[3]; 150 nM D-Ribose, day 5, cells lysed with Triton",3.4
same,Rate of ATP secretion,"[3]; 150 nM D-Ribose, day 7, 10 nM thrombin",1.6
same,Total ATP,"[3]; 150 nM D-Ribose, day 7, cells lysed with Triton",3.4
same,effect on ATP secretion,[3]; 15 mM D-Ribose,no effect
same,toxicity to platelets,[3]; 15 mM D-Ribose,toxic to platelets
same,"ATP secretion activity, % of baseline","[3]; optimal amounts of D-Ribose (150 nM), day 7",> 80%
same,"mean ATP secretion activity, % of baseline","[3]; optimal amounts of D-Ribose (150 nM), five days",90%
same,incidence of bacterial contamination,bacteria,lower incidence of bacterial contamination
same,tolerance of ingestion,[4],no ill effects
O=C(CO)[C@H](O)[C@H](O)COP(=O)(O)O [Ribulose-5-phosphate],P-selectin expression in response to thrombin challenge versus controls,[1]; [5],No difference from controls
same,platelet aggregation versus controls,platelets (aggregation); [5],No difference from controls
same,ATP secretion in response to 10 nM thrombin versus controls,[3]; [5],No difference from controls
OC[C@@H](O)[C@H](O)[C@@H](O)CO [xylitol],preservation of platelet function,platelets,some benefit
"O=C(CO)[C@@H](O)[C@H](O)COP(=O)(O)O [xylulose-5-phosphate, Xylulose-5-phosphate]",P-selectin expression in response to 10 nM thrombin challenge,[1]; five-day treated platelets,67.7%
same,P-selectin spontaneous expression,[1]; five-day treated platelets,37.5%
same,platelet aggregation,platelets (aggregation); five days storage,weak
same,"ATP secretion, retention of basal value",[3]; five days storage,64.5%
